Assay results published in patent publication US9889135B2, “Companion diagnostic for CDK4 inhibitors” (Memorial Sloan-Kettering Cancer Center, priority 2013, dated 2018).

How the values were obtained:
WD/DDLS cell lines = assay: annexin V staining (apoptosis); type: cell-based, human; conditions: PD0332991, 48 hours, any of the seven cell lines
Procedure: FIG. 1A-C. […] Mean percentage of BrdU incorporation or annexin V+/7-AAD− cells was calculated from three or more independent experiments. Error bars represent standard deviation (*p<0.05).
FIG. 13A-B. Nutlin-3a induces apoptosis in all the liposarcoma cell lines. The indicated cell lines were treated with nutlin-3a or vehicle control and extracts were prepared for immunoblotting (A) or annexin V staining (B) forty-eight hours after treatment. Mean percentage of annexin V+/7-AAD− cells was calculated from three or more independent experiments. Error bars represent standard deviation (*p<0.05).
Cells were stained with BrdU (20 μM for two hours) or annexin V as previously described (22, 48). […] was determined by staining with propidium iodine and FACS analyses (49).

seven WD/DDLS cell lines = assay: cell size, phalloidin staining and flow cytometry; type: cell-based, human; conditions: continued treatment, all seven cell lines
Procedure: FIGS. 10A-C. […] Cells were plated at a concentration of 25,000 per well in a 4-well chamber slides (Lab-Tek) and treated for seven days with drug or shRNA as described above and stained for senescence-associated β-galactosidase (Cell Signaling kit #9860). Cell number was quantitated by DAPI staining and β-galactosidase staining quantitated as a proportion of total cells. Senescence associated heterochromatic foci were quantitated after cells were fixed with 4% paraformaldehyde, permeabilized with 0.1% Triton, blocked with 2% FBS, and stained with antibodies against HP1γ (1:5000 dilution, 2MOD-1G6 Millipore). Senescent cells were identified by immunofluorescence after treatment of slides with anti-mouse secondary antibodies and quantitation of focal SAHF as a percent of total cells (Leica Upright Confocal SP5 confocal microscope). Actin was marked using phalloidin staining (1:500, Invitrogen) and cells were counterstained with DAPI. Cell area was measured by with Metamorph software to calculate relative area per cell.

[1] = tested on: CHK2 mobility and KAP1 phosphorylation in WD/DDLS cell lines; assay: markers of ATM activity by immunoblot; type: cell-based, human; conditions: LS8817, LS141, LS8107, LS8313 and LS7785-1
Text: (§1) Extracts from control and irradiated mouse embryo fibroblasts were included as a control. Tubulin is a control. (B) γH2AX and 53BP1 foci were scored in the indicated cell lines. As per (Doll et al., 2009; […] et al., 2012) having a cell with greater than 10 foci (white) is considered positive for DNA damage. As expected for WD/DDLS cell lines the basal level of DNA damage was quite high.

[2] = tested on: γH2AX and 53BP1 foci in LS8107 and LS7785-10 cells; assay: DNA damage foci; type: cell-based, human
Text: as §1

[3] = tested on: γH2AX and 53BP1 foci in LS8817 cells; assay: DNA damage foci; type: cell-based, human
Text: as §1

[4] = tested on: E2F7 in WD/DDLS cell lines; assay: E2F7 levels by immunoblot; type: cell-based, human; conditions: 48 hours
Text: FIG. 24. […] Tubulin is a loading control. This experiment was repeated at least twice for each cell line.

[5] = tested on: CEBPα, FABP4 and PPARγ mRNA in LS8107 and LS7785-10 cells; assay: adipocyte differentiation marker mRNA; type: cell-based, human; conditions: seven days
Procedure: FIG. 11. […] Cell lines were maintained in DMEM High glucose (HG) supplemented with 10% heat-inactivated fetal bovine serum. Glioma cell lines, DKMG, SNB19, DBTRG-05MG, and […], were maintained in DMEM HG supplemented with 10% fetal bovine serum and 2 mM glutamine. The MCF7 breast cancer cell line was maintained in RPMI-1640 media supplemented with 10% fetal bovine serum and 2 mM glutamine.

LS6736 cells = assay: SA-β-gal and HP1γ staining in LS6736; type: cell-based, human; conditions: LS6736 (MDM2 amplified, CDK4 not); seven days
Procedure: Cells were plated at a concentration of 25,000 per well in a 4-well chamber slides (Lab-Tek) and treated for seven days with drug or shRNA as described above and stained for senescence-associated β-galactosidase (Cell Signaling kit #9860). Cell number was quantitated by DAPI staining and β-galactosidase staining quantitated as a proportion of total cells. Senescence associated heterochromatic foci were quantitated after cells were fixed with 4% paraformaldehyde, permeabilized with 0.1% Triton, blocked with 2% FBS, and stained with antibodies against HP1γ (1:5000 dilution, 2MOD-1G6 Millipore). Senescent cells were identified by immunofluorescence after treatment of slides with anti-mouse secondary antibodies and quantitation of focal SAHF as a percent of total cells (Leica Upright Confocal SP5 confocal microscope). Actin was marked using phalloidin staining (1:500, Invitrogen) and cells were counterstained with DAPI. Cell area was measured by with Metamorph software to calculate relative area per cell.

[6] = tested on: HAUSP in WD/DDLS cell lines; assay: HAUSP levels by immunoblot; type: cell-based, human; conditions: 2 days of treatment
Procedure: FIG. 25A-D. Turnover of MDM2 is regulated post-translationally. […] Extracts were prepared and MDM2 was immunoprecipitated and the presence of HAUSP and MDM2 in the precipitates were determined by immunoblot. IgG was used as a non-specific antibody control for the immunoprecipitation. […] Tubulin is a loading control. HAUSP levels were reduced with shRNA in the indicated cells lines and the effect on protein expression (C) and the accumulation of senescence-associated (3-galactosidase positive cells measured (D). The mean and standard deviation was compiled from at least two independent experiments with each cell line and a representative immunoblot is shown.

[7] = tested on: LS8817 cells with enforced MDM2 expression; assay: PD0332991 response with enforced MDM2 expression; type: cell-based, human
Procedure: (A) Immunoblot. […] Tubulin was a loading control. (B) Immunoblot. […] This experiment was carried out with three different pools of transductants multiple times (*p<0.05, **p<0.01). r^2 is calculated as the best-fit correlation.
FIG. 17. […] Cells transduced with an RFP expressing virus were used as a control.
For MDM2 and Rb expression, cells were infected with a lentivirus (pLOC, Open Biosystems) encoding either MDM2, MDM2 V75A, MDM2 I440A, MDM2 C464A, MDM2 Δ254-264, MDM2 L468A, MDM2 Δ464-471, MDM2 P476A, RB, LP-RB, PSM-RB or RFP. Transduced cells were selected for in media containing 3 μg/ml blasticidin and selection was maintained throughout the experiment.

[8] = tested on: p27 in responder and non-responder cells; assay: p27 levels by immunoblot; type: cell-based, human
Text: FIG. 22. Additional immunoblot analysis in responder and non-responder cells. […] Actin is a loading control. This experiment was repeated at least three times for each cell line.

RB-negative cells = conditions: cited from earlier work

## CC(=O)c1c(C)c2cnc(Nc3ccc(N4CCNCC4)cn3)nc2n(C2CCCC2)c1=O [PD0332991]
WD/DDLS cell lines
  annexin V staining, a marker of apoptosis: did not induce a significant change
Seven WD/DDLS cell lines
  cell size / cell volume: enlarged
[1]
  CHK2 mobility or KAP1 phosphorylation, markers of ATM activity: did not induce significant changes
[2]
  number of foci: largely unaffected
[3]
  number of γH2Ax and 5313P1 foci: reduced
[4]; LS8107
  E2F7 protein amount: did not change
[4]; LS8817, LS0082 and LS8313
  E2F7 protein: induced accumulation
[5]
  CEBPα, FABP4 and PPARγ mRNA, markers of differentiated adipocytes: None of these markers increased
LS6736 cells
  number of SA-β-gal and SAHF (HP1γ) positive cells: did not increase
[6]
  HAUSP levels: did not change
[7]
  cell cycle exit (phosphorylated Rb, cyclin A, BrdU incorporation): not affected
  p53 levels: still reduced
[7]; seven days
  SA-β-gal accumulation: failed to accumulate
[8]
  p27 levels: unchanged
RB-negative cells
  proliferation of RB-negative cells: no effect
